{
  "source": "patent US20110218515A1",
  "about": "“Methods for Treating Acute Myocardial Infarctions and Associated Disorders” (The Regents of the University of California, priority 2009, published 2011)",
  "key": {"[1]": {"test_system": "ischemia-reperfusion rat model", "experiment": "Histological analysis of infarct size and fibrosis", "format": "in vivo, Sprague-Dawley rats", "procedure": "After baseline echocardiography, thirty male Sprague-Dawley rats, ages 6-10 weeks, underwent myocardial infarction using an ischemia-reperfusion model. Briefly, rats were anesthetized using inhaled isoflurane (5% induction, 2.5% maintenance, O2 output 1 L/min) and positioned supine on an electrically warmed animal surgery platform. Rats were intubated using a 16-gauge i.v. catheter and then ventilated using a Harvard rodent respirator. After a left thoracotomy and pericardiotomy were performed, a 7-0 Ticron suture was introduced into the myocardium, using the left atrial appendage and right outflow tract as landmarks. The depth of entry was 2 mm, which was slightly greater than the level of the left coronary artery. Both suture ends were then threaded through a PE-90 polyethylene tube 6 in. in length to form a “snare loop” around the artery, closed by pulling on the free ends of the suture. […] The suture was then tightened to occlude the artery for 20 minutes and then removed to allow for reperfusion. The chest was then closed with 5-0 prolene suture, and the animal was allowed to recover. After one week and repeat echocardiography, rats were randomized to placebo rodent feed (control group, n=15) or rodent feed mixed with 1.2% pirfenidone (PFD) (treatment group, n=15) for four weeks. All experiments and data analyses were performed with the operator blinded to treatment group.\nVentricular tissue samples were fixed in 10% neutral buffered formalin. The samples were embedded in paraffin, sectioned (10-μm thick), and then stained with Masson's trichrome or Sirius red with fast green counterstain. Stained slides were examined under light microscopy, digitized using a high-resolution scanner, and analyzed using Photoshop CS software. Infarct areas on Masson's trichome corresponded tightly with areas of dense Sirius red staining with minimal to no fast green. Infarct scar area and total area of left ventricular myocardium, for all sections, were manually traced in the digital images and automatically calculated by the software. Infarct size, expressed as a percentage, was measured by dividing the sum of infarct areas from all sections by the sum of LV areas from all sections and multiplying by 100.\nThe total area of fibrosis was also assessed. After excluding the infarct area (defined as dense fibrosis), fibrosis in the border and non-infarct zones was quantified from digital photomicrographs of the Sirius red-stained sections. Areas containing blood vessels and perivascular interstitial cells were also excluded from fibrosis quantification. The red pixel content of digitized images relative to the total tissue area was counted by using the Adobe Photoshop CS software."}, "[2]": {"test_system": "ischemia-reperfusion rat model", "experiment": "Optical mapping, programmed stimulation and VT inducibility of excised hearts 5 wks after MI", "format": "in vivo, Sprague-Dawley rats", "conditions": "for conduction heterogeneity vs control: all tested cycle lengths; for rise times of border zones vs control: significant at lowest PCL", "procedure": "After baseline echocardiography, thirty male Sprague-Dawley rats, ages 6-10 weeks, underwent myocardial infarction using an ischemia-reperfusion model. Briefly, rats were anesthetized using inhaled isoflurane (5% induction, 2.5% maintenance, O2 output 1 L/min) and positioned supine on an electrically warmed animal surgery platform. Rats were intubated using a 16-gauge i.v. catheter and then ventilated using a Harvard rodent respirator. After a left thoracotomy and pericardiotomy were performed, a 7-0 Ticron suture was introduced into the myocardium, using the left atrial appendage and right outflow tract as landmarks. The depth of entry was 2 mm, which was slightly greater than the level of the left coronary artery. Both suture ends were then threaded through a PE-90 polyethylene tube 6 in. in length to form a “snare loop” around the artery, closed by pulling on the free ends of the suture. […] The suture was then tightened to occlude the artery for 20 minutes and then removed to allow for reperfusion. The chest was then closed with 5-0 prolene suture, and the animal was allowed to recover. After one week and repeat echocardiography, rats were randomized to placebo rodent feed (control group, n=15) or rodent feed mixed with 1.2% pirfenidone (PFD) (treatment group, n=15) for four weeks. All experiments and data analyses were performed with the operator blinded to treatment group. Optical mapping is a technique to perform high-resolution electrophysiologic evaluation of the cardiac tissue. To summarize the procedure, ten thousand simultaneous optical action potentials were recorded with a 100×100 CMOS camera within a 19 mm×19 mm mapping field on the epicardium of the LV anterior wall. Using a 1000-W tungsten-halogen light source, fluorescence was excited with an excitation filter of 530 nm and transmitted with an emission long-pass filter of >630 nm. Fluorescent optical maps were acquired at 2000 Hz during programmed electrical stimulation. Optical mapping was performed 5 wks after MI. Rats were injected with heparin (500 U ip) 15 min before excision of the heart, and were then anesthetized with pentobarbital sodium (50 mg/kg ip). After adequate anesthesia, the heart was rapidly excised and arrested by immersion in cold cardioplegia solution. The aorta was cannulated and retrogradely perfused, at a rate of 6 mL/min, with 37° C. modified Tyrode solution containing (in mmol/L): 130 NaCl, 20.0 NaHCO3, 1.2 MgCl2, 4.0 KCl, 5.6 glucose, and 1.8 CaCl2, gassed with 95% 02/5% C02. Extraneous tissue was carefully removed from the heart. The cannulated heart was then placed in 37° C. Tyrode solution in a specialized temperature-controlled optical recording chamber (maintained at 37° C.) while ECG, perfusion rate, and temperature were measured continuously for the duration of the experiment. Before optical recordings, Tyrode solution containing voltage-sensitive dye PGH I (10 μL of 5 mM stock solution) was perfused through the preparation over a 5-min period. Once a cannulated heart was perfused with PGH I, it was placed in the optical chamber with its LV anterior wall pressed against the imaging window. […] During optical recordings, contractility was blocked with 15 mM butadione monoxime (BDM). Ventricular epicardium bipolar pacing, at a stimulus amplitude of 2× threshold, was performed on normal tissue near the infarct zone. Mapping was recorded during pacing drives of 250 ms to 90 ms (decremented by 10 ms), as well as during S1-S2 pacing using a basic cycle length (BCL) of 200 ms and maximum S2 of 150 ms and decremented by 10 ms. Programmed stimulation, with up to three extrastimuli, and burst pacing (from 90 ms to 60 ms) were used to assess arrhythmia inducibility. Inducibility was defined as the ability to provoke sustained (>30 s) ventricular tachycardia (VT) or ventricular fibrillation. Maps were also captured during programmed stimulation and with all episodes of arrhythmia. […]"}},
  "data": [
    {"smiles": "Cc1ccc(=O)n(-c2ccccc2)c1", "note": "[pirfenidone]", "values": [
      {"measurement": "amount of fibrosis (including border zones and non-MI areas and infarct scar)", "setting": "[1]; controls 23±2%, p=0.01", "result": "13±3", "unit": "%"},
      {"measurement": "total amount of fibrosis and extra-infarct fibrosis", "setting": "[1]; rat MI model", "result": "attenuated"},
      {"measurement": "infarct size, percent of total myocardium", "setting": "[1]; rat MI model, controls 18%±2.7%, p=0.022", "result": "10±1.9", "unit": "%"},
      {"measurement": "fibrosis within the infarct border zone", "setting": "[1]; rat MI model, vs control infarcts", "result": "not only decreased but its distribution appeared less heterogeneous"},
      {"measurement": "fluorescence amplitude in the border zones vs control", "setting": "[2]", "result": "trend toward higher amplitudes"},
      {"measurement": "decrease in VT susceptibility vs control", "setting": "[2]; 5 wks after MI", "result": "almost three-fold decrease"},
      {"measurement": "rate of VT induction", "setting": "[2]; 5 wks after MI, controls 73.3%, p=0.027", "result": 28.6, "unit": "%"},
      {"measurement": "conduction velocities in the border zones vs control", "setting": "[2]; all pacing cycle lengths, p<0.05", "result": "significantly faster"},
      {"measurement": "conduction heterogeneity vs control", "setting": "[2]; p=0.146", "result": "trend toward lower conduction heterogeneity"},
      {"measurement": "conduction heterogeneity vs control", "setting": "[2]; p=0.146, listed as PFD", "result": "trend toward higher conduction heterogeneity indices in control animals"},
      {"measurement": "maximal rate of AP rise (dF/dt) of border zones vs control", "setting": "[2]; trend at all PCLs", "result": "faster than the rise of control border zones"},
      {"measurement": "rise times of border zones vs control", "setting": "[2]; trend at all PCLs", "result": "shorter"},
      {"measurement": "rise times of border zones vs control", "setting": "[2]; trend at all PCLs, listed as PFD", "result": "lower than those of control border zones"}
    ]}
  ]
}
